Our source for the inhibition of growth values is US10798941B2, “Microbiocidal oxadiazole derivatives” (SYNGENTA PARTICIPATIONS AG, priority 2016, dated 2020).

The experiment has as its system Glomerella Lagenarium (Colletotrichum Lagenarium). In words: Glomerella lagenarium (Colletotrichum lagenarium) liquid culture / cucumber / preventative (anthracnose). Type of experiment: cell-based. The settings on record: Colletotrichum orbiculare; 20 ppm in the applied formulation; liquid culture in PDB, 24° C., inhibition of growth measured photometrically 3 to 4 days after application, vs untreated; read-out: disease control. Here is the method:
Mycelia fragments or conidia suspensions of a fungus prepared either freshly from liquid cultures of the fungus or from cryogenic storage, are directly mixed into nutrient broth. DMSO solutions of the test compound (max. 10 mg/ml) are diluted with 0.025% Tween20 by a factor of 50 and 10 μl of this solution is pipetted into a microtiter plate (96-well format). The nutrient broth containing the fungal spores/mycelia fragments is then added to give an end concentration of the tested compound. The test plates are incubated in the dark at 24° C. and 96% relative humidity. The inhibition of fungal growth is determined photometrically after 2 to 7 days, depending on the pathosystem, and percent antifungal activity relative to the untreated check is calculated.
Conidia of the fungus from cryogenic storage are directly mixed into nutrient broth (PDB—potato dextrose broth). After placing a (DMSO) solution of test compound into a microtiter plate (96-well format), the nutrient broth containing the fungal spores is added.
The following compounds at 20 ppm in the applied formulation give at least 80% disease control in this test when compared to untreated control under the same conditions, which show extensive disease development.
Turning to `Cc1ccc2c(C=O)cn(Cc3ccc(-c4noc(C(F)(F)F)n4)cc3)c2c1` [Compound 1.51, 6-methyl-1-[[4-[5-(trifluoromethyl)-1,2,4-oxadiazol-3-yl]phenyl]methyl]indole-3-carbaldehyde], the inhibition of growth at 20 ppm was at least 80%.

As to `FC(F)(F)c1nc(-c2ccc(Cn3ccc4ccc(Cl)cc43)cc2)no1` [Compound 1.64, 3-[4-[(6-chloroindol-1-yl)methyl]phenyl]-5-(trifluoromethyl)-1,2,4-oxadiazole], the inhibition of growth at 20 ppm is at least 80%.

As for `COC(=O)c1cccc2c1ccn2Cc1ccc(-c2noc(C(F)(F)F)n2)cc1` [Compound 1.66, methyl 1-[[4-[5-(trifluoromethyl)-1,2,4-oxadiazol-3-yl]phenyl]methyl]indole-4-carboxylate], the inhibition of growth at 20 ppm is at least 80%.

In the case of `COC(=O)c1cc(C(F)(F)F)n(Cc2ccc(-c3noc(C(F)(F)F)n3)cc2)c1C` [Compound 1.68, methyl 2-methyl-5-(trifluoromethyl)-1-[[4-[5-(trifluoromethyl)-1,2,4-oxadiazol-3-yl]phenyl]methyl]pyrrole-3-carboxylate], the inhibition of growth at 20 ppm was at least 80%.

Turning to `FC(F)(F)c1nc(-c2ccc(Cn3c(Br)nc(Br)c3Br)cc2)no1` [Compound 1.69, 3-[4-[(2,4,5-tribromoimidazol-1-yl)methyl]phenyl]-5-(trifluoromethyl)-1,2,4-oxadiazole], the inhibition of growth at 20 ppm is at least 80%.

For `Cc1c(C=O)c2ccccc2n1Cc1ccc(-c2noc(C(F)(F)F)n2)cc1` [Compound 1.70, 2-methyl-1-[[4-[5-(trifluoromethyl)-1,2,4-oxadiazol-3-yl]phenyl]methyl]indole-3-carbaldehyde], the inhibition of growth at 20 ppm was at least 80%.

Take `FC(F)(F)c1nc(-c2ccc(Cn3c(Br)nc(Cl)c3Cl)cc2)no1` [Compound 1.72, 3-[4-[(2-bromo-4,5-dichloro-imidazol-1-yl)methyl]phenyl]-5-(trifluoromethyl)-1,2,4-oxadiazole]: the inhibition of growth at 20 ppm was at least 80%.

With `CCOC(=O)c1nn(Cc2ccc(-c3noc(C(F)(F)F)n3)cc2)cc1-c1ccccc1` [Compound 1.84, ethyl 4-phenyl-1-[[4-[5-(trifluoromethyl) 1,2,4-oxadiazol-3-yl]phenyl]methyl]pyrazole-3-carboxylate], the inhibition of growth at 20 ppm was at least 80%.

Consider `Fc1cc2ncn(Cc3ccc(-c4noc(C(F)(F)F)n4)cc3)c2cc1Cl` [Compound 1.92, 3-[4-[(6-chloro-5-fluoro-benzimidazol-1-yl)methyl]phenyl]-5-(trifluoromethyl)-1,2,4-oxadiazole], for which the inhibition of growth at 20 ppm is at least 80%.

With `FC(F)(F)c1nc(-c2ccc(Cn3cncn3)c(C(F)(F)F)c2)no1` [Compound 1.98, 3-[4-(1,2,4-triazol-1-ylmethyl)-3-(trifluoromethyl)phenyl]-5-(trifluoromethyl)-1,2,4-oxadiazole], the inhibition of growth at 20 ppm is at least 80%.

As to `Cc1cc(C)n(Cc2ccc(-c3noc(C(F)(F)F)n3)cc2Cl)n1` [Compound 1.100, 3-[3-chloro-4-[(3,5-dimethylpyrazol-1-yl)methyl]phenyl]-5-(trifluoromethyl)-1,2,4-oxadiazole], the inhibition of growth at 20 ppm is at least 80%.

On to `FC(F)(F)c1nc(-c2ccc(Cn3cnc(Br)c3)c(C(F)(F)F)c2)no1` [Compound 1.103, 3-[4-[(4-bromoimidazol-1-yl)methyl]-3-(trifluoromethyl)phenyl]-5-(trifluoromethyl)-1,2,4-oxadiazole], for which the inhibition of growth at 20 ppm is at least 80%.

`COC(=O)c1ncn(Cc2ccc(-c3noc(C(F)(F)F)n3)cc2Cl)c1C(=O)OC` [Compound 1.104, dimethyl 1-[[2-chloro-4-[5-(trifluoromethyl)-1,2,4-oxadiazol-3-yl]phenyl]methyl]imidazole-4,5-dicarboxylate]: the inhibition of growth at 20 ppm was at least 80%.

`N#Cc1ncn(Cc2ccc(-c3noc(C(F)(F)F)n3)cc2Cl)c1C#N` [Compound 1.106, 1-[[2-chloro-4-[5-(trifluoromethyl)-1,2,4-oxadiazol-3-yl]phenyl]methyl]imidazole-4,5-dicarbonitrile]: the inhibition of growth at 20 ppm was at least 80%.

On to `FC(F)(F)c1nc(-c2ccc(Cn3cnc4ccccc43)c(Cl)c2)no1` [Compound 1.110, 3-[4-(benzimidazol-1-ylmethyl)-3-chloro-phenyl]-5-(trifluoromethyl)-1,2,4-oxadiazole], for which the inhibition of growth at 20 ppm was at least 80%.

With `FC(F)(F)c1nc(-c2ccc(Cn3cc(Cl)cn3)c(Cl)c2)no1` [Compound 1.111, 3-[3-chloro-4-[(4-chloropyrazol-1-yl)methyl]phenyl]-5-(trifluoromethyl)-1,2,4-oxadiazole], the inhibition of growth at 20 ppm is at least 80%.

For the compound `FC(F)(F)c1nc(-c2ccc(Cn3nnnc3-c3ccc(Cl)cc3)c(Cl)c2)no1` [Compound 1.113, 3-[3-chloro-4-[[5-(4-chlorophenyl)tetrazol-1-yl]methyl]phenyl]-5-(trifluoromethyl)-1,2,4-oxadiazole], the inhibition of growth at 20 ppm was at least 80%.

On to `FC(F)(F)c1nc(-c2ccc(Cn3cc(I)cn3)c(Cl)c2)no1` [Compound 1.114, 3-[3-chloro-4-[(4-iodopyrazol-1-yl)methyl]phenyl]-5-(trifluoromethyl)-1,2,4-oxadiazole], for which the inhibition of growth at 20 ppm is at least 80%.

Regarding `FC(F)(F)c1nc(-c2ccc(Cn3cc(Br)cn3)c(Cl)c2)no1` [Compound 1.115, 3-[4-[(4-bromopyrazol-1-yl)methyl]-3-chloro-phenyl]-5-(trifluoromethyl)-1,2,4-oxadiazole], the inhibition of growth at 20 ppm is at least 80%.

Take `COc1cc(-c2noc(C(F)(F)F)n2)ccc1Cn1cncc1Br` [Compound 1.116, 3-[4-[(5-bromoimidazol-1-yl)methyl]-3-methoxy-phenyl]-5-(trifluoromethyl)-1,2,4-oxadiazole]: the inhibition of growth at 20 ppm is at least 80%.

With `COc1cc(-c2noc(C(F)(F)F)n2)ccc1Cn1cnc(Br)c1` [Compound 1.117, 3-[4-[(4-bromoimidazol-1-yl)methyl]-3-methoxy-phenyl]-5-(trifluoromethyl)-1,2,4-oxadiazole], the inhibition of growth at 20 ppm was at least 80%.

As to `Cc1nn(Cc2ccc(-c3noc(C(F)(F)F)n3)cc2F)c(C)c1Cl` [Compound 1.127, 3-[4-[(4-chloro-3,5-dimethyl-pyrazol-1-yl)methyl]-3-fluoro-phenyl]-5-(trifluoromethyl)-1,2,4-oxadiazole], the inhibition of growth at 20 ppm is at least 80%.

For the compound `Fc1cc(-c2noc(C(F)(F)F)n2)ccc1Cn1nnnc1-c1ccc(Cl)cc1` [Compound 1.130, 3-[4-[[5-(4-chlorophenyl)tetrazol-1-yl)methyl]-3-fluoro-phenyl]-5-(trifluoromethyl)-1,2,4-oxadiazole], the inhibition of growth at 20 ppm was at least 80%.

As to `COC(=O)c1ncn(Cc2ccc(-c3noc(C(F)(F)F)n3)cn2)n1` [Compound 1.138, methyl 1-[[5-[5-(trifluoromethyl)-1,2,4-oxadiazol-3-yl]-2-pyridyl]methyl]-1,2,4-triazole-3-carboxylate], the inhibition of growth at 20 ppm is at least 80%.

Regarding `Cc1cc(C)n(Cc2ccc(-c3noc(C(F)(F)F)n3)cn2)n1` [Compound 1.140, 3-[6-[(3,5-dimethylpyrazol-1-yl)methyl]-3-pyridyl]-5-(trifluoromethyl)-1,2,4-oxadiazole], the inhibition of growth at 20 ppm was at least 80%.

`CCOC(=O)c1ncn(Cc2ccc(-c3noc(C(F)(F)F)n3)cc2)c1-c1ccccc1` [Compound 1.188, ethyl 5-phenyl-1-[[4-[5-(trifluoromethyl)-1,2,4-oxadiazol-3-yl]phenyl]methyl]imidazole-4-carboxylate]: the inhibition of growth at 20 ppm was at least 80%.

Turning to `CCOC(=O)c1c(-c2ccccc2)ncn1Cc1ccc(-c2noc(C(F)(F)F)n2)cc1` [Compound 1.189, ethyl 5-phenyl-3-[[4-[5-(trifluoromethyl)-1,2,4-oxadiazol-3-yl]phenyl]methyl]imidazole-4-carboxylate], the inhibition of growth at 20 ppm is at least 80%.

As for `Cc1nc2cc(C(F)(F)F)ccc2n1Cc1ccc(-c2noc(C(F)(F)F)n2)cc1` [Compound 1.191, 3-[4-[[2-methyl-5-(trifluoromethyl)benzimidazol-1-yl]methyl]phenyl]-5-(trifluoromethyl)-1,2,4-oxadiazole], the inhibition of growth at 20 ppm was at least 80%.

Consider `Cc1cc(C)n(Cc2ccc(-c3noc(C(F)(F)F)n3)nc2)n1` [Compound 1.284, 3-[5-[(3,5-dimethylpyrazol-1-yl)methyl]-2-pyridyl]-5-(trifluoromethyl)-1,2,4-oxadiazole], for which the inhibition of growth at 20 ppm was at least 80%.

Turning to `C[C@@H]1CN(Cc2ccc(-c3noc(C(F)(F)F)n3)cc2)C[C@H](C)O1` [Compound 1.307, (2R,6S)-2,6-dimethyl-4-[[4-[5-(trifluoromethyl)-1,2,4-oxadiazol-3-yl]phenyl]methyl]morpholine], the inhibition of growth at 20 ppm was at least 80%.

Regarding `Cc1cc(C)n(CCc2ccc(-c3noc(C(F)(F)F)n3)cc2)n1` [Compound 1.309, 3-[4-[2-(3,5-dimethylpyrazol-1-yl)ethyl]phenyl]-5-(trifluoromethyl)-1,2,4-oxadiazole], the inhibition of growth at 20 ppm is at least 80%.
